Reference: US20260258035A1, “FIVE-MEMBERED AND SIX-MEMBERED NITROGEN-CONTAINING COMPOUND, AND INTERMEDIATE, PREPARATION METHOD AND USE THEREOF” (HANGZHOU SYNRX THERAPEUTICS BIOMEDICAL TECHNOLOGY CO., LTD., priority 2022, published 2026)
≈ marks a conversion by molar mass, not a printed value. Where two headings read alike, the source gives them in different places.

Legend:
[1] = molecular target: PARG (poly ADP-ribonal hydrolase) (Homo sapiens, UniProt Q86W56); assay: Biochemical assay (PARG, TFMU-ADPr substrate); settings: PARG, TFMU-ADPr substrate
PXR = molecular target: T1, PXR (Homo sapiens, UniProt O75469); assay: PXR assay (DPX2 luciferase reporter cells); format: cell-based; settings: 24 h; for PXR Activation @30 uM (% Ctrl): positive control rifampicin
T1 construct: host or cells: DPX2 (HepG2)
T1 sequence (O75469 1-434): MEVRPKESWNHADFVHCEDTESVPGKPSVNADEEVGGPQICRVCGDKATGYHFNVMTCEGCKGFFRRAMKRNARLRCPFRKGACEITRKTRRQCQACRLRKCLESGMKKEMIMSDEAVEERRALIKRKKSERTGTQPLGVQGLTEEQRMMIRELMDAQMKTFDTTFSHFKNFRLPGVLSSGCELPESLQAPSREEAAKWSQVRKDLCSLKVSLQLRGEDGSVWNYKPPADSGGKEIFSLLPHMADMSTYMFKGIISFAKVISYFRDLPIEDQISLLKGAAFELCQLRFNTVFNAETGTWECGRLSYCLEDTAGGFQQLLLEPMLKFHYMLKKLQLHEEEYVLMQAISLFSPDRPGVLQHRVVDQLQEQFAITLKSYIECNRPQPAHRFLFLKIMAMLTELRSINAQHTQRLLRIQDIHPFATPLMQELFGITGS
Experimental: 1) Information of Cell Line
DPX2 (HepG2 cells stably transfected with PXR and luciferase reporter) cells were purchased from Puracyp Inc (Carlsbad, CA).
2) Experimental Procedures a) Reagents and Consumables
The DPX2 cells were cultured in the growth medium containing 1000 fetal bovine serum. The DPX2 cells in a T-75 flask were cultured in the […] incubator at 37° C. with 950% relative humidity, and digested when the cells grew to cover 80-90% of the bottom of the flask.
The surface layer of the T-75 cultured cells was washed with 10 mL of PBS; PBS was pipetted; 3-5 mL of tryp sin was added; the cells were digested at 37° C. for 5 minutes or until the cells were digested to be suspended; and excessive medium containing fetal bovine serum was added to stop trypsinization. The cell suspension was transferred to a conical-bottomed centrifuge tube and centrifuged at 150 g rpm for 5 minutes at room temperature; the supernatant was carefully pipetted; and the cells were resuspended with the treatment medium, with the concentration adjusted to 3.2×10^5 cells/mL (incubation time: 24 hours, plate seeding density: […]). 25 μL of the cell suspension was added to each well of the 384-well cell culture plate.
The cell culture plate was placed and cultured for 24 h in the […] incubator with 9500 humidity at 37° C. c) Formulation of Compound
The stock solution of each of 1000× test compound, the positive control (rifampicin), and the negative control (propranolol) was prepared with DMSO. The final concentrations of the positive control (rifampicin) were 1 μM and 10 μM, and the final concentration of the negative control (propranolol) was 10 μM. The final concentrations of the test compound were 10 μM, 1 μM, 0.1 μM, or EC50 (30 μM, 10 μM, 3 μM, 1 μM, 0.3 μM, 0.1 μM). The final concentration of DMSO was 0.10. The cell culture plate was taken out from the incubator, and 25 nL of the stock solution of the positive control, negative control or test compound was directly added with Echo, each with three parallel concentrations. The cell culture plate was placed in the incubator and continued to be incubated for 24 h. Before starting the assay with the substrate, the cell morphology and the monolayer integrity were checked to ensure that the monolayer was of acceptable research quality. […]
d) Quantitative Detection with PXR Activation
After 24 hours of dosing, the culture could be quantitatively detected with PXR activation. The CellTiter-Fluor™ Cell Viability Assay Kit and One-Glo Luciferase reagent were equilibrated to room temperature. The GF-AFC substrate (10 μL) was added to the assay buffer (10 ml) to develop a 2× reagent, which was then diluted into a 1× reagent with 10 ml of PBS. The ONE-Glo Luciferase substrate was added to the ONE-Glo Luciferase assay buffer. The culture plate was taken out from the incubator; the medium was discarded; 1× of CellTiter-Fluor™ reagent was poured into the loading slot; 25 μL of reagent were added per well to the culture plate with a pipetting workstation; and the culture plate was then incubated in the incubator for 30 minutes. The cell culture plate was taken out from the incubator, and cooled slightly to room temperature; and the fluorescence value was determined with a fully automatic quantitative microplate reader, with the excitation light of 400 nm and the emission light of 505 nm. The ONE-Glo reagent was poured into the loading slot, with 25 μL per well, and the resulting mixture was gently mixed in the plate, and incubated at room temperature for 5 minutes to determine the luminescence value.

[2] = Solubility assay (FaSSGF / FaSSIF); format: physicochemical; settings: kinetic from dmso stock, 2 h at 25° C.
Experimental: 1). Preparation of Solutions:
The FaSSGF solution was prepared as follows: • a) preparation of FaSSGF buffer: dissolve 2.0 g of NaCl as the raw material in about 0.9 L of purified water; • b) adjustment of the pH of the buffer: adjust the pH of the buffer to 1.6 with 1N HCL, and replenish the buffer with purified water to the volume of 1 L; and • c) preparation of FaSSGF solution by addition of FaSSGF powder: add 0.06 g of the FaSSGF powder to about 0.5 L of the buffer, stir until the powder was completely dissolved, and make up for the volume (1 L) with the buffer.
The FaSSIF solution was prepared as follows: • a) preparation of FaSSIF buffer: dissolve 0.42 g of NaOH, 3.44 g of anhydrous NaH2PO4, and 6.19 g of NaCl as raw materials in about 0.9 L of purified water; • b) adjustment the pH of the buffer: adjust the pH of the buffer to 6.5 with 1 N NaOH or 1 N HCL, and replenish the buffer with purified water to the volume of 1 L; and • c) preparation of FaSSIF solution by addition of FaSSIF powder: add 2.24 g of the FaSSIF powder to about 0.5 L of the buffer, stir until the powder was completely dissolved, and make up for the volume (1 L) with the buffer.
2). Preparation of the Solution of Control Compound:
The control compound was weighed and dissolved in DMSO to 10 mM to obtain a stock solution.
3) Preparation of the Solution of Compound to be Tested:
The compound to be tested was formulated into a 10 mM DMSO stock solution.
4) Preparation of Internal Standard Solution:
a) The internal standard was weighed and dissolved in DMSO to 10 mM to obtain an internal standard stock solution (ISTD stock solution).
b) The internal standard stock solution was diluted to 500 nM (Tolbutamide) with an ACN:methano mixture (volume ratio: 1:1) to obtain a quenching solution.
a) The FaSSGF solution at pH 1.6 and the FaSSIF solution at pH 6.5 were pre-warmed; and then, the compound was injected into the buffer.
Once done, the samples were centrifuged at 12,000 rpm for 10 min, and the supernatant was transferred to a new tube. The supernatant was diluted 10-fold and 100-fold with the FaSSGF solution at pH 1.6 or the FaSSIIF solution at pH 6.5. 20 μL of each sample (1×, 10×, 100× and standard curve) was added to 500 μL of the IS solution. The resulting mixture was vortexed vigorously for 1 min and centrifuged at 4,500 rpm for 15 min at 4° C. 150 μL of the supernatant was transferred for LC-MS/MS sample analysis.

HCC1806 = assay: Cell viability assay (CellTiter-Glo); format: cell-based, Human; settings: HCC1806, 7 days, CellTiter-Glo, read-out: IC50 (nM) in cell viability assay
PARG = PARG (Homo sapiens, UniProt Q86W56); assay: Biochemical assay (PARG, TFMU-ADPr substrate)
[3] = system: Human breast squamous carcinoma cells HCC1806; assay: Cell function assay (In-Cell Western, PAR/pADPr after MMS); format: cell-based; settings: read-out: IC50 (nM) in cell function assay
Outline: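 HCC1806 cells adhered 24 h at 37 °C, 5% CO2, then were pretreated 1 h with compound (30000 nM down to 1 nM, plus 0 nM) or DMSO. MMS was then added at 0.5 mM final for 1 h before In-Cell Western detection of PAR/pADPr.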

[4] = fassgf or other biorelevant, FaSSGF solution pH 1.6, 100 μM from DMSO stock, read-out: FaSSGF solubility
[5] = FaSSIF solution pH 6.5, 100 μM from DMSO stock, read-out: FaSSIF solubility

Sequence of PARG (Q86W56 whole entry): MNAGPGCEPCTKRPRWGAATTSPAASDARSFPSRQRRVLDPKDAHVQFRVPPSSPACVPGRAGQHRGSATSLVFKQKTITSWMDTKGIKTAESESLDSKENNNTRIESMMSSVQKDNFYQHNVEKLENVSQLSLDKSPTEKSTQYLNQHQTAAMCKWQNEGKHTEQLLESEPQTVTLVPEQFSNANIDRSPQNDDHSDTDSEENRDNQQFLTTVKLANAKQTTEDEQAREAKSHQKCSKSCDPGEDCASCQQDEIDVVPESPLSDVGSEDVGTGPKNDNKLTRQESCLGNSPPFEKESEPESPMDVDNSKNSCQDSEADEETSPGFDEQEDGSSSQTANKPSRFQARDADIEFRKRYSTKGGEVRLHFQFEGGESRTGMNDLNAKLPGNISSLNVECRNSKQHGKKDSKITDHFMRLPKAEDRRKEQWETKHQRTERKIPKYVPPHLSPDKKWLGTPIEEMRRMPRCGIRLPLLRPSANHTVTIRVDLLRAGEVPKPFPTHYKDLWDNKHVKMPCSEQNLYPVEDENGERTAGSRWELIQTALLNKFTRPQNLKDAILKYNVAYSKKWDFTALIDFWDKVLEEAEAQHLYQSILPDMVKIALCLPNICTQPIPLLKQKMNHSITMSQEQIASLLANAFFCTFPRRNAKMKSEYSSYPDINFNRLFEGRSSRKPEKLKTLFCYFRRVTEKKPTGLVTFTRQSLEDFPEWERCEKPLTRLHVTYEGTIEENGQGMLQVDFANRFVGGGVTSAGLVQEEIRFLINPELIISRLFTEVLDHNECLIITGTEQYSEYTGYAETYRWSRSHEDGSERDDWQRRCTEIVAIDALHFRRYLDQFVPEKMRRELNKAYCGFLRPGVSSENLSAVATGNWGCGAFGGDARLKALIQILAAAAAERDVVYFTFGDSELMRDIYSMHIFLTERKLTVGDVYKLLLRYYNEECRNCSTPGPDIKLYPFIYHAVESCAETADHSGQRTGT
Sequence of PARG (poly ADP-ribonal hydrolase) (Q86W56 whole entry): as above

Row | SMILES | IC50 [1] | PXR Activation @30 uM (Fold) (PXR) | PXR Activation @30 uM (% Ctrl) (PXR) | solubility at 2 h [2, 4] | solubility at 2 h [2, 5] | IC50 (HCC1806; Homo sapiens, HCC1806, 168 h) | IC50 (PARG; PARG, TFMU-ADPr substrate) | IC50 (HCC1806) | IC50 ([3]; HCC1806, In-Cell Western, MMS treatment) | IC50 ([3]; HCC1806, compound 1 h then 0.5 mM MMS 1 h, PAR/pADPr antibody, In-Cell Western) | IC50 (PARG; 4 nM PARG, 66.2 uM TFMU-ADPr, 3 min at room temperature)
1 | CC(C)C(=O)N1CCN(c2cc(S(=O)(=O)NC(C)C(F)(F)F)cn3c(-c4nnc(C(F)F)s4)ncc23)CC1 (stereo not drawn) [Example 35, 3-(5-(difluoromethyl)-1,3,4-thiadiazol-2-yl)-8-(4-isobutyrylpiperazin-1-yl)-N-(1,1,1-trifluoropropan-2-yl)imidazo[1,5-a]pyridine-6-sulfonamide] | 128 nM | – | – | – | – | – | – | – | – | – | –
2 | N#CC1(NS(=O)(=O)c2cc(N3CCN(C(=O)C4CNC4)CC3)c3cnc(-c4nnc(C(F)(F)F)s4)n3c2)CC1 [Example 251, 8-(4-(azetidine-3-carbonyl)piperazin-1-yl)-N-(1-cyanocyclopropyl)-3-(5-(trifluoromethyl)-1,3,4-thiadiazol-2-yl)imidazo[1,5-a]pyridine-6-sulfonamide] | – | 1.5 Fold | 11 % Ctrl | 80.6 µM (≈ 46.9 µg/mL) | 78.1 µM (≈ 45.4 µg/mL) | 8780 nM | 6.03 nM | – | – | – | –
3 | N#CC1(NS(=O)(=O)c2cc(N3CCN(C(=O)C4CCO4)CC3)c3cnc(-c4nnc(C(F)(F)F)s4)n3c2)CC1 (stereo not drawn) [Example 236, N-(1-cyanocyclopropyl)-8-(4-(oxetane-2-carbonyl)piperazin-1-yl)-3-(5-(trifluoromethyl)-1,3,4-thiadiazol-2-yl)imidazo[1,5-a]pyridine-6-sulfonamide] | – | 1.5 Fold | 7 % Ctrl | 75.7 µM (≈ 44.1 µg/mL) | 82.6 µM (≈ 48.1 µg/mL) | – | 3.8 nM | 1100 nM | – | – | –
4 | CC(C)C(=O)N1CCN(c2cc(S(=O)(=O)NC3(CF)COC3)cn3c(-c4nnc(C(F)F)s4)ncc23)CC1 [Example 60, 3-(5-(difluoromethyl)-1,3,4-thiadiazol-2-yl)-N-(3-(fluoromethyl)oxetan-3-yl)-8-(4-isobutyrylpiperazin-1-yl)imidazo[1,5-a]pyridine-6-sulfonamide] | – | – | – | 3.83 µM (≈ 2.2 µg/mL) | 10 µM (≈ 5.74 µg/mL) | < 500 nM | 0.19 nM | 438 nM | 2.85 nM | > 1000 nM | < 100 nM
